# Reference: paper PMC12226733, “Evolution of iGluR ligand specificity, polyamine regulation, and ion selectivity inferred from a placozoan epsilon receptor” (Communications Biology, 2025)
# “And” between values parts separate entries of the source, which are not always exact repeats. Equal entries are not always repeated. “Also recorded” adds a separate entry of the source. Where two headings read alike, the source gives them in different places.
# How the values were obtained:
# [1] = biological target: T. adhaerens GluE1αA receptor (wildtype) (Trichoplax adhaerens, UniProt B3SAW0); assay: whole-cell patch clamp, agonist-evoked currents in CHO-K1 cells; assay type: cell-based; conditions: for normalized peak inward current, Avg / normalized peak inward current, single recording: wild type; for sensitivity to agonist: 1 mM
# Sequence of T. adhaerens GluE1αA receptor (wildtype) (B3SAW0 entry or part of it): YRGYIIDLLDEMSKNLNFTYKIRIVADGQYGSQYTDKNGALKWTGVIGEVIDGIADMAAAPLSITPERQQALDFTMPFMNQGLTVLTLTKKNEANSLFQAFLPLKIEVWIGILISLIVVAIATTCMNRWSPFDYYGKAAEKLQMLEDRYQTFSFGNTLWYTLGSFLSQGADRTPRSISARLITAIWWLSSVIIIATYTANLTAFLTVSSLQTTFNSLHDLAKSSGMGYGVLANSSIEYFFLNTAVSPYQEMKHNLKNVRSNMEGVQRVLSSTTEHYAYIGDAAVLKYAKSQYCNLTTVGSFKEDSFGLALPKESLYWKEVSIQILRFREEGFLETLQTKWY
# [2] = test system: GluE1αA m2 variant (S653G, I655T); assay type: cell-based, Trichoplax adhaerens; conditions: for normalized peak inward current, Avg / normalized peak inward current, single recording / normalized current (dose response), Avg / normalized current (dose response), single recording: m2
# Source text: (§1) As noted, a model has been put forward that defines iGluR ligand specificity based on a set of key amino acids in the LBD of iGluRs[11]. […] To the best of our knowledge, whether these few positions are indeed solely responsible for ligand specificity, and moreover, can be altered to switch specificity for natural ligands, has not been experimentally tested. […] We also created a triple mutant, with an additional phenylalanine to tyrosine mutation at position 732 (F732Y; m3 variant), to make the T. adhaerens epsilon receptor resemble GluN2A and GluA2 receptors from human, reasoning that this mutation might enhance glutamate sensitivity. We also generated a single F732Y mutant (m1 variant), to assess the contribution of this amino acid to ligand specificity in isolation.
# (§2) The cDNA of the T. adhaerens GluE1αA receptor was cloned into the mammalian expression vector pIRES2-EGFP, using a 5’ nested primer that inserted a mammalian consensus Kozak sequence of […] (Supplementary Table 5). Several mutants/variants of this receptor where also prepared via site directed mutagenesis using standard procedures and primers listed in Supplementary Table 5. For electrophysiological comparisons, we commissioned GenScript (USA) to synthesize the cDNA of the human GluA2 […] receptor (NCBI accession number NP_001077088.2), which was cloned into the pIRES2-EGFP vector with a Kozak sequence flanking the start codon and restriction enzymes SalI and BamHI at the 5’ and 3’ ends of the cDNA, respectively. Receptor cDNAs in the various pIRES2 constructs were transfected into Chinese Hamster Ovary-K1 (CHO-K1; Sigma) cells cultured in Dulbecco’s Modified Eagle Medium Nutrient Mixture F-12 (DMEM/F12) supplemented with 10% Fetal Bovine Serum (FBS) and 1% penicillin-streptomycin at 37°C. Transfections were done with 2 μg of plasmid vector using the transfecting reagent PolyJet^TM (SignaGen Laboratories, USA) according to the manufacturer’s instructions and plated onto glass coverslips in 35 mm dishes the next day. Transfected cells were incubated at 28°C for 2 to 4 days, then coverslips were transferred to a new 60 mm dish with 5 mL of external recording solution. […] Agonists and pharmacological compounds used in this study were dissolved in corresponding external solutions. […] Patch pipettes were pulled using a P-1000 micropipette puller (Sutter, USA), from thick-walled borosilicate tubing (1.5 and 0.86 outer and inner diameter, respectively), to a resistance of between 1 and 6 megaohms.
# [3] = test system: GluE1αA m3 variant (S653G, I655T, F732Y); assay type: cell-based, Trichoplax adhaerens; conditions: for normalized peak inward current, Avg / normalized peak inward current, single recording / normalized current (dose response), Avg / normalized current (dose response), single recording: m3
# Source text: as §1, §2
# [4] = test system: GluE1αA m1 variant (F732Y); assay type: cell-based, Trichoplax adhaerens; conditions: m1; ligand 10 mM; normalized to glycine
# Source text: as §1, §2
# [5] = ligand tested on its own at 10 mM
# [6] = ligand 10 mM, normalized to glycine
# [7] = ligand 10 mM, normalized to glutamate
# [8] = tested as a single mix each at 3 mM
smiles,measurement,setting,value
"Cc1onc(O)c1CC(N)C(=O)O (stereo not drawn) [AMPA, α-amino-3-hydroxy-5-methyl-4-isoxazolepropionic acid]","normalized peak inward current, Avg",[1]; agonist 1 mM,0.00463
same,sensitivity to agonist,[1]; wildtype,insensitivity; also recorded: not sensitive
same,"normalized peak inward current, Avg",[2]; agonist 1 mM,0.00676
same,"normalized peak inward current, Avg",[3]; agonist 1 mM,0.36
same,"normalized peak inward current, single recording",[3]; agonist 1 mM,0.33 and 0.26 and 0.30 and 0.41 and 0.44 and 0.43
same,sensitivity to agonist,"[3]; m3 variant, 1 mM",moderate responses; also recorded: sensitive
same,peak amplitude relative to current elicited by 1 mM glutamate,"[3]; m3 variant, 1 mM AMPA, slow desensitizing currents",roughly 36%
N[C@H](CO)C(=O)O [D-serine],activation of ligand-gated current,[1]; [5],activated
same,"normalized peak inward current, Avg",[1]; [6],0.95
same,"normalized peak inward current, single recording",[1]; [6],0.93 and 1.00 and 0.86 and 0.89
same,"normalized current (dose response), Avg","[1]; wildtype, ligand 0.03 mM",0.0178
same,"normalized current (dose response), Avg","[1]; wildtype, ligand 0.10 mM",0.20
same,"normalized current (dose response), Avg","[1]; wildtype, ligand 0.30 mM",0.78
same,"normalized current (dose response), single recording","[1]; wildtype, ligand 0.30 mM",0.63 and 0.81 and 0.90 and 0.84 and 0.69 and 0.70
same,"normalized current (dose response), Avg","[1]; wildtype, ligand 1.00 mM",0.97
same,"normalized current (dose response), single recording","[1]; wildtype, ligand 1.00 mM",1.00 and 0.99 and 0.87 and 0.90
same,EC50,"[1]; wildtype, monophasic dose-response fit of normalized whole-cell current",190 ± 40 µM
same,"normalized peak inward current, Avg",[4],0.76
same,"normalized peak inward current, single recording",[4],0.75 and 0.83 and 0.85 and 0.77 and 0.60
same,"normalized peak inward current, Avg",[2]; [7],0.06
same,"normalized peak inward current, single recording",[2]; [7],0.0548 and 0.0529 and 0.07 and 0.06 and 0.05
same,"normalized peak inward current, Avg",[3]; [7],0.19
N[C@@H](CO)C(=O)O [L-serine],activation of ligand-gated current,[1]; [5],activated
same,"normalized peak inward current, Avg",[1]; [6],0.94
same,"normalized peak inward current, single recording",[1]; [6],1.00 and 0.98 and 0.94 and 0.78 and 0.93 and 0.97
same,"normalized current (dose response), Avg","[1]; wildtype, ligand 0.03 mM",0.017
same,"normalized current (dose response), Avg","[1]; wildtype, ligand 0.10 mM",0.35
same,"normalized current (dose response), Avg","[1]; wildtype, ligand 0.30 mM",0.95
same,"normalized current (dose response), single recording","[1]; wildtype, ligand 0.30 mM",1.00 and 0.97 and 0.95 and 0.77 and 0.99
same,"normalized current (dose response), Avg","[1]; wildtype, ligand 1.00 mM",1.00
same,"normalized current (dose response), single recording","[1]; wildtype, ligand 1.00 mM",0.99 and 1.00 and 0.98
same,"normalized current (dose response), Avg","[1]; wildtype, ligand […]",0.63
same,"normalized peak inward current, Avg",[4],1.05
same,"normalized peak inward current, single recording",[4],1.18 and 1.01 and 1.00 and 1.05
same,"normalized peak inward current, Avg",[2]; [7],0.20
same,"normalized peak inward current, single recording",[2]; [7],0.17 and 0.18 and 0.24 and 0.27
same,"normalized peak inward current, Avg",[3]; [7],0.07
"CN[C@H](CC(=O)O)C(=O)O [NMDA, N-methyl-D-aspartate]","normalized peak inward current, Avg",[1]; agonist 1 mM,0.00229
same,sensitivity to agonist,[1]; wildtype,insensitivity; also recorded: not sensitive
same,"normalized peak inward current, Avg",[2]; agonist 1 mM,0.0107
same,"normalized peak inward current, Avg",[3]; agonist 1 mM,0.00471
"C[C@H](N)C(=O)O [alanine, L-alanine]","normalized current (dose response), Avg",[1],0.80
same,"normalized current (dose response), single recording",[1],0.66 and 0.73 and 0.79 and 0.89 and 0.75 and 0.91 and 0.87 and 0.80
same,activation of ligand-gated current,[1]; [5],activated
same,"normalized peak inward current, Avg",[1]; [6],0.89
same,"normalized peak inward current, single recording",[1]; [6],0.85 and 0.96 and 0.83 and 1.00 and 0.82
same,"normalized current (dose response), Avg","[1]; wildtype, ligand 0.01 mM",0.0244
same,"normalized current (dose response), Avg","[1]; wildtype, ligand 0.03 mM",0.28
same,"normalized current (dose response), Avg","[1]; wildtype, ligand 0.30 mM",1.00
same,"normalized current (dose response), single recording","[1]; wildtype, ligand 0.30 mM",1.00
same,"normalized current (dose response), Avg","[1]; wildtype, ligand […]",0.60
same,"normalized peak inward current, Avg",[4],1.12
same,"normalized peak inward current, single recording",[4],1.10 and 1.06 and 1.08 and 1.13 and 1.23
same,"normalized peak inward current, Avg",[2]; [7],0.36
same,"normalized peak inward current, single recording",[2]; [7],0.33 and 0.37 and 0.40 and 0.41 and 0.31
same,"normalized peak inward current, Avg",[3]; [7],0.0342
N=C(N)NCCC[C@H](N)C(=O)O [arginine],activation of ligand-gated current,[1]; [5],no responses
N[C@@H](CC(=O)O)C(=O)O [aspartate],activation of ligand-gated current,[1]; [5],no responses
C[N+](C)(C)CC(=O)O [betaine],activation of ligand-gated current,[1]; [5],no responses
N[C@@H](CCC(=O)O)C(=O)O [glutamate],activation of ligand-gated current,[1]; [5],no responses
same,"normalized peak inward current, Avg",[1]; agonist 1 mM,0.0035
same,"normalized peak inward current, Avg",[1]; [6],0.00871
same,"normalized peak inward current, Avg",[4],0.02
same,"normalized peak inward current, Avg",[2]; agonist 1 mM,0.76
same,"normalized peak inward current, single recording","[2]; agonist 1 mM, listed as Glu",0.74 and 0.64 and 0.71 and 0.87 and 0.80
same,"normalized current (dose response), Avg",[2]; glutamate 0.3 mM,0.0181
same,"normalized current (dose response), Avg",[2]; glutamate 1 mM,0.22
same,"normalized current (dose response), single recording",[2]; glutamate 1 mM,0.14 and 0.22 and 0.25 and 0.19 and 0.27
same,"normalized current (dose response), Avg",[2]; glutamate 3 mM,0.76
same,"normalized current (dose response), single recording",[2]; glutamate 3 mM,0.66 and 0.88 and 0.67 and 0.63 and 0.98 and 0.72
same,"normalized current (dose response), Avg",[2]; glutamate 10 mM,0.98
same,"normalized current (dose response), single recording",[2]; glutamate 10 mM,1.00 and 0.98 and 0.92
same,"normalized peak inward current, Avg",[2]; [7],1.00
same,"normalized peak inward current, single recording",[2]; [7],1.00
same,sensitivity to agonist,"[2]; m2 variant, 1 mM",robust responses
same,EC50,"[2]; m2 variant, dose response of normalized current",1810 ± 200 µM
same,"normalized peak inward current, Avg",[3]; agonist 1 mM,1.00
same,"normalized peak inward current, single recording","[3]; agonist 1 mM, listed as Glu",1.03 and 1.05 and 1.08 and 0.95 and 0.92 and 0.91
same,"normalized current (dose response), Avg",[3]; glutamate 0.1 mM,0.02
same,"normalized current (dose response), Avg",[3]; glutamate 0.3 mM,0.16
same,"normalized current (dose response), single recording",[3]; glutamate 0.3 mM,0.14 and 0.12 and 0.11 and 0.13 and 0.20 and 0.16 and 0.19
same,"normalized current (dose response), Avg",[3]; glutamate 1 mM,0.88
same,"normalized current (dose response), single recording",[3]; glutamate 1 mM,0.97 and 0.78 and 0.74 and 0.89 and 0.95 and 0.87 and 0.86 and 0.96
same,"normalized current (dose response), Avg",[3]; glutamate 3 mM,0.95
same,"normalized current (dose response), single recording",[3]; glutamate 3 mM,0.98 and 0.83 and 1.00 and 0.87
same,"normalized peak inward current, Avg",[3]; [7],1.00
same,"normalized peak inward current, single recording",[3]; [7],1.00
same,EC50,"[3]; m3 variant, dose response of normalized current",610 ± 60 µM
N[C@@H](Cc1c[nH]cn1)C(=O)O [histidine],activation of ligand-gated current,[1]; [8],no responses
CC[C@H](C)[C@H](N)C(=O)O [isoleucine],activation of ligand-gated current,[1]; [8],no responses
C=C(C)[C@H]1CN[C@H](C(=O)O)[C@H]1CC(=O)O [kainate],"normalized peak inward current, Avg",[1]; agonist 1 mM,0.00265
same,sensitivity to agonist,[1]; wildtype,insensitivity; also recorded: not sensitive
same,"normalized peak inward current, Avg",[2]; agonist 1 mM,0.00537
same,"normalized peak inward current, Avg",[3]; agonist 1 mM,0.00374
CC(C)C[C@H](N)C(=O)O [leucine],activation of ligand-gated current,[1]; [8],no responses
NCCCC[C@H](N)C(=O)O [lysine],activation of ligand-gated current,[1]; [8],no responses
CSCC[C@H](N)C(=O)O [methionine],activation of ligand-gated current,[1],no responses
N[C@@H](Cc1ccccc1)C(=O)O [phenylalanine],activation of ligand-gated current,[1]; [8],no responses
N[C@@H](Cn1oc(=O)[nH]c1=O)C(=O)O [quisqualate],"normalized peak inward current, Avg",[1]; agonist 1 mM,0.00248
same,sensitivity to agonist,[1]; wildtype,not sensitive
same,"normalized peak inward current, Avg",[2]; agonist 1 mM,0.00939
same,"normalized peak inward current, Avg",[3]; agonist 1 mM,0.01
C[C@@H](O)[C@H](N)C(=O)O [threonine],activation of ligand-gated current,[1]; [5],no responses
CC(C)[C@H](N)C(=O)O [valine],activation of ligand-gated current,[1]; [5],weakly
same,"normalized peak inward current, Avg",[1]; [6],0.35
same,"normalized current (dose response), Avg","[1]; wildtype, ligand 0.30 mM",0.0282
same,"normalized current (dose response), Avg","[1]; wildtype, ligand 1.00 mM",0.32
same,"normalized current (dose response), Avg","[1]; wildtype, ligand 3.00 mM",0.83
same,"normalized current (dose response), single recording","[1]; wildtype, ligand 3.00 mM",0.85 and 0.78 and 0.82 and 0.89 and 0.92 and 0.71 and 0.81 and 0.88
same,"normalized current (dose response), Avg","[1]; wildtype, ligand 10.00 mM",1.00
same,"normalized current (dose response), single recording","[1]; wildtype, ligand 10.00 mM",1.00
same,"normalized current (dose response), Avg","[1]; wildtype, ligand […]",0.56
same,"normalized peak inward current, Avg",[4],0.0347
same,"normalized peak inward current, Avg",[2]; [7],0.00917
same,"normalized peak inward current, Avg",[3]; [7],0.0123
